{
  "source": "PubChem BioAssay AID1919010",
  "about": "(Molecular Pharmacology Branch, DTP, NCI, 2023)",
  "system": "Hs578T complex spheroid growth, percent test/control",
  "test": "Anticancer human tumor Hs578T cell line growth inhibition [AhR];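 also: luminescent viability signal as a proxy for spheroid growth; spheroids exposed to agents for one week after three days of growth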",
  "conditions": "for IC50: curve of first compound; for viability, T/C: stronger effect = lower value",
  "in_short": "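Agents were dosed in half-log steps down from roughly clinical Cmax, or from 10 microM where Cmax was unknown, alone and with AhR antagonists. Read-out: percent test/control growth of tumor spheroids containing HUVEC and MSC stromal cells.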",
  "data": [
    {"molecule": "O=C(C=Cn1cnc(-c2cc(C(F)(F)F)cc(C(F)(F)F)c2)n1)NNc1cnccn1", "note": "+ Cc1cncc(-c2nc(NCCc3c[nH]c4ccccc34)c3ncn(C(C)C)c3n2)c1", "values": [
      {"measurement": "IC50", "setting": "second compound 0.1 µM", "result": 402, "unit": "nM"},
      {"measurement": "IC50", "setting": "second compound 0.316 µM", "result": 352, "unit": "nM"},
      {"measurement": "IC50", "setting": "second compound 1 µM", "result": 346, "unit": "nM"},
      {"measurement": "IC50", "setting": "second compound 3.16 µM", "result": 148, "unit": "nM"},
      {"measurement": "IC50", "setting": "second compound 10 µM", "result": "< 9.49", "unit": "nM"},
      {"measurement": "viability, T/C", "setting": "second compound 0.1 µM, first compound 0.00949 µM", "result": 113, "unit": "%"},
      {"measurement": "viability, T/C", "setting": "second compound 0.1 µM, first compound 0.03 µM", "result": 100, "unit": "%"},
      {"measurement": "viability, T/C", "setting": "second compound 0.1 µM, first compound 0.0949 µM", "result": 93.7, "unit": "%"},
      {"measurement": "viability, T/C", "setting": "second compound 0.1 µM, first compound 0.3 µM", "result": 61.6, "unit": "%"},
      {"measurement": "viability, T/C", "setting": "second compound 0.1 µM, first compound 0.949 µM", "result": 19.2, "unit": "%"},
      {"measurement": "viability, T/C", "setting": "second compound 0.1 µM, first compound 3 µM", "result": 19.4, "unit": "%"},
      {"measurement": "viability, T/C", "setting": "second compound 0.316 µM, first compound 0.00949 µM", "result": 110, "unit": "%"},
      {"measurement": "viability, T/C", "setting": "second compound 0.316 µM, first compound 0.03 µM", "result": 110, "unit": "%"},
      {"measurement": "viability, T/C", "setting": "second compound 0.316 µM, first compound 0.0949 µM", "result": 96.4, "unit": "%"},
      {"measurement": "viability, T/C", "setting": "second compound 0.316 µM, first compound 0.3 µM", "result": 55, "unit": "%"},
      {"measurement": "viability, T/C", "setting": "second compound 0.316 µM, first compound 0.949 µM", "result": 21.9, "unit": "%"},
      {"measurement": "viability, T/C", "setting": "second compound 0.316 µM, first compound 3 µM", "result": 19.1, "unit": "%"},
      {"measurement": "viability, T/C", "setting": "second compound 1 µM, first compound 0.00949 µM", "result": 101, "unit": "%"},
      {"measurement": "viability, T/C", "setting": "second compound 1 µM, first compound 0.03 µM", "result": 103, "unit": "%"},
      {"measurement": "viability, T/C", "setting": "second compound 1 µM, first compound 0.0949 µM", "result": 93.2, "unit": "%"},
      {"measurement": "viability, T/C", "setting": "second compound 1 µM, first compound 0.3 µM", "result": 55.3, "unit": "%"},
      {"measurement": "viability, T/C", "setting": "second compound 1 µM, first compound 0.949 µM", "result": 17.2, "unit": "%"},
      {"measurement": "viability, T/C", "setting": "second compound 1 µM, first compound 3 µM", "result": 19.2, "unit": "%"},
      {"measurement": "viability, T/C", "setting": "second compound 3.16 µM, first compound 0.00949 µM", "result": 84.6, "unit": "%"},
      {"measurement": "viability, T/C", "setting": "second compound 3.16 µM, first compound 0.03 µM", "result": 71.6, "unit": "%"},
      {"measurement": "viability, T/C", "setting": "second compound 3.16 µM, first compound 0.0949 µM", "result": 59.4, "unit": "%"},
      {"measurement": "viability, T/C", "setting": "second compound 3.16 µM, first compound 0.3 µM", "result": 39, "unit": "%"},
      {"measurement": "viability, T/C", "setting": "second compound 3.16 µM, first compound 0.949 µM", "result": 16, "unit": "%"},
      {"measurement": "viability, T/C", "setting": "second compound 3.16 µM, first compound 3 µM", "result": 14.6, "unit": "%"},
      {"measurement": "viability, T/C", "setting": "second compound 10 µM, first compound 0.00949 µM", "result": 6.63, "unit": "%"},
      {"measurement": "viability, T/C", "setting": "second compound 10 µM, first compound 0.03 µM", "result": 4.78, "unit": "%"},
      {"measurement": "viability, T/C", "setting": "second compound 10 µM, first compound 0.0949 µM", "result": 2.83, "unit": "%"},
      {"measurement": "viability, T/C", "setting": "second compound 10 µM, first compound 0.3 µM", "result": 1.17, "unit": "%"},
      {"measurement": "viability, T/C", "setting": "second compound 10 µM, first compound 0.949 µM", "result": 1.46, "unit": "%"},
      {"measurement": "viability, T/C", "setting": "second compound 10 µM, first compound 3 µM", "result": 1.56, "unit": "%"}
    ]}
  ]
}
